{"source": "patent US20220056019A1", "about": "“FARNESOID X RECEPTOR AGONISTS AND USES THEREOF” (Metacrine, Inc., priority 2018, published 2022)", "target": "T1, hFXR (Homo sapiens, UniProt Q96RI1)", "T1 construct": "expressed in transfected cells; host or cells: CV-1 cells", "T1 sequence (Q96RI1 1-486)": "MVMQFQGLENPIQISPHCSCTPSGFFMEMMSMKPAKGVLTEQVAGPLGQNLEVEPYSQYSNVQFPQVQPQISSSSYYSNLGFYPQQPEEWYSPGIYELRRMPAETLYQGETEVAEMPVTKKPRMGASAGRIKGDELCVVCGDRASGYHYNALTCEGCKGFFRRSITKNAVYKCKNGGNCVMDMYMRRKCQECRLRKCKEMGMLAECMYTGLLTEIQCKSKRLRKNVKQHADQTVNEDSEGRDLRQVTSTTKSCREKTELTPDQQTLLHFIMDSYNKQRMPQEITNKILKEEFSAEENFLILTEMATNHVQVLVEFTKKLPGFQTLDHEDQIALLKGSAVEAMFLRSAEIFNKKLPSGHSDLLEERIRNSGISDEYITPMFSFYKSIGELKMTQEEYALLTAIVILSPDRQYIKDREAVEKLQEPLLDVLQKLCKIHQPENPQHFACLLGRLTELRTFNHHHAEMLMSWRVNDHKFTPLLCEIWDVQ", "T1 sequence (P19793 1-462 partner)": "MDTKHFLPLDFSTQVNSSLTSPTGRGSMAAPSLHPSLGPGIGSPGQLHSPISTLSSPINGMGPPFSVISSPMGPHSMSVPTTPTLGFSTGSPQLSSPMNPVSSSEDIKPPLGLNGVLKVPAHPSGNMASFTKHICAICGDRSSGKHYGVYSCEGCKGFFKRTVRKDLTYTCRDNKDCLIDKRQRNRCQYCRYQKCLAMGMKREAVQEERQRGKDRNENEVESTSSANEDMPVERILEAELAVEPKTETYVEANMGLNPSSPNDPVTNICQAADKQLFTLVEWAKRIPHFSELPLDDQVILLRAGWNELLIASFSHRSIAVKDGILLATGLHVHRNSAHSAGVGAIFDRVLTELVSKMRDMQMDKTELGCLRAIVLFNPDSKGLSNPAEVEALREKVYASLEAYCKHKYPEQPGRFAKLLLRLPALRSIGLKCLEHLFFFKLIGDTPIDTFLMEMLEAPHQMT", "test": "In Vitro FXR Assay (TK): TK-ECRE-luc reporter in transfected CV-1 cells", "type": "cell-based", "details": "18 hrs incubation, luminescence", "outline": "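Luminescence from a TK-ECRE-luc reporter was read after 18 h of compound exposure in CV-1 cells. These cells were grown in charcoal-stripped FBS medium and transiently transfected with hFXR, hRXR and YFP expression plasmids.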", "data": [{"smiles": "COc1ccc(C23CCC(CN(c4cc(-c5nc(C(C)C)no5)ccn4)C(=O)[C@H]4CC[C@H](OC(=O)N5CC(O)C5)CC4)(CC2)CC3)cc1C", "note": "[Compound 26.13, 4-((4-(3-isopropyl-1,2,4-oxadiazol-5-yl)pyridin-2-yl)((4-(4-methoxy-3-methylphenyl)bicyclo[2.2.2]octan-1-yl)methyl)carbamoyl)cyclohexyl trans-3-hydroxyazetidine-1-carboxylate]", "values": [{"measurement": "EC50", "value": "≤ 50", "unit": "nM"}]}, {"smiles": "COc1c(C)cc(C23CCC(CN(c4cc(-c5cnn(C(C)C)c5)ccn4)C(=O)[C@H]4CC[C@H](OC(=O)N5CC(O)C5)CC4)(CC2)CC3)cc1F", "note": "[Compound 26.05, 4-(((4-(3-Fluoro-4-methoxy-5-methylphenyl)bicyclo[2.2.2]octan-1-yl)methyl)(4-(1-isopropyl-1H-pyrazol-4-yl)pyridin-2-yl)carbamoyl)cyclohexyl trans-3-hydroxyazetidine-1-carboxylate]", "values": [{"measurement": "EC50", "value": "≤ 50", "unit": "nM"}]}, {"smiles": "COc1ccc(C23CCC(CN(c4cc(-c5cnc(C(C)C)s5)ccn4)C(=O)[C@H]4CC[C@H](OC(=O)N5CC(O)C5)CC4)(CC2)CC3)cc1C", "note": "[Compound 4.21, 4-((4-(2-Isopropylthiazol-5-yl)pyridin-2-yl)((4-(4-methoxy-3-methylphenyl)bicyclo[2.2.2]octan-1-yl)methyl)carbamoyl) cyclohexyl 3-hydroxyazetidine-trans-1-carboxylate]", "values": [{"measurement": "EC50", "value": "≤ 50", "unit": "nM"}]}, {"smiles": "COc1ccc(C23CCC(CN(c4cc(-c5cnn(C(C)C)c5)ccn4)C(=O)[C@H]4CC[C@H](OC(=O)N5CC(OCCO)C5)CC4)(CC2)CC3)cc1C", "note": "[Compound 4.10, 4-((4-(1-Isopropyl-1H-pyrazol-4-yl)pyridin-2-yl)((4-(4-methoxy-3-methylphenyl)bicyclo [2.2.2]octan-1-yl)methyl)carbamoyl)cyclohexyl 3-(2-hydroxyethoxy) azetidine- trans-1-carboxylate]", "values": [{"measurement": "EC50", "value": "≤ 50", "unit": "nM"}]}, {"smiles": "COc1ccc([C@H]2CC[C@H](CN(c3cc(-c4cnn(C(C)C)c4)ccn3)C(=O)[C@H]3CC[C@H](OC(=O)N4CCN(C)CC4)CC3)CC2)cc1Cl", "note": "[Compound 2.06, trans-4-(((trans-4-(3-Chloro-4-methoxyphenyl)cyclohexyl)methyl)(4-(1-isopropyl-1H-pyrazol-4-yl)pyridin-2-yl)carbamoyl)cyclohexyl 4-methylpiperazine-1-carboxylate]", "values": [{"measurement": "EC50", "value": "≤ 50", "unit": "nM"}]}, {"smiles": "COc1ccc(C23CCC(CN(c4cc(-c5cnc(C6CC6)o5)ccn4)C(=O)[C@H]4CC[C@H](OC(=O)N5CC(O)C5)CC4)(CC2)CC3)cc1C", "note": "[Compound 4.24, 4-((4-(2-Cyclopropyloxazol-5-yl)pyridin-2-yl)((4-(4-methoxy-3-methylphenyl)bicyclo [2.2.2]octan-1-yl)methyl)carbamoyl) cyclohexyl 3-hydroxyazetidine-trans-1-carboxylate]", "values": [{"measurement": "EC50", "value": "≤ 50", "unit": "nM"}]}, {"smiles": "Cc1ccc(C23CCC(CN(c4cc(-c5cnn(C(C)C)c5)ccn4)C(=O)[C@H]4CC[C@H](OC(=O)N5CC(O)C5)CC4)(CC2)CC3)cc1C", "note": "[Compound 26.09, 4-(((4-(3,4-Dimethylphenyl)bicyclo[2.2.2]octan-1-yl)methyl)(4-(1-isopropyl-1H-pyrazol-4-yl)pyridin-2-yl)carbamoyl)cyclohexyl trans-3-hydroxyazetidine-1-carboxylate]", "values": [{"measurement": "EC50", "value": "≤ 50", "unit": "nM"}]}, {"smiles": "COc1ccc(C23CCC(CN(c4cncc(-c5cnn(C6(C)CCC6)c5)c4)C(=O)[C@H]4CC[C@H](OC(=O)N5CC(O)C5)CC4)(CC2)CC3)cc1C", "note": "[Compound 25.22, 4-(((4-(4-Methoxy-3-methylphenyl)bicyclo[2.2.2]octan-1-yl)methyl)(5-(1-(1-methylcyclobutyl)-1H-pyrazol-4-yl)pyridin-3-yl)carbamoyl)cyclohexyl trans-3-hydroxyazetidine-1-carboxylate]", "values": [{"measurement": "EC50", "value": "≤ 50", "unit": "nM"}]}]}
